{"source": "patent US20150004617A1", "about": "“DNA Polymerase Activity Assays and Methods Enabling Determination of Viable Microbes” (Zeus Scientific, Inc., priority 2012, published 2015)", "key": {"[1]": {"system": "E. coli-derived DNA polymerase activity", "experiment": "Bead lysis-coupled DPE-PCR, ddCTP termination of microbial DNA polymerase (E. coli)", "type": "biochemical, Escherichia coli", "details": "reaction mix with 50 μM ddCTP instead of dCTP; crude bead mill lysate", "experimental": "The qPCR reaction master mix was prepared using the following components: LightCycler 480 Master Mix (Roche cat #04707494001), 333 nM of each primer, 166 nM Target probe (FAM), 166 nM internal control probe (TxRed), and 1.2 U of UDG (Bioline cat #BIO-20744). As a tool to monitor PCR inhibition, each qPCR reaction also included 40 copies of competitive internal control DNA. For each qPCR reaction, 3 μL of DNA polymerase reaction were added to 27 μL of master mix and a two-step qPCR was run on a SmartCycler (Cepheid, Sunnyvale Calif.) as follows: Initial incubation of 40° C. for 10 minutes and 50° C. for 10 minutes and at 95° C. for 5 minutes (to activate Taq), followed by 45 cycles of 5 s denaturation at 95° C. and 20 s annealing/extension at 65° C. Cycle threshold (Ct) values were generated automatically by the SmartCycler software using 2nd derivative analysis of the emerging qPCR curves.\nS. aureus and E. coli cultures were grown to an OD600 of 1.0±0.2 (approximately 1×10^9 cfu/mL.) For each organism, 1 mL of culture was pelleted and washed three times in T.E. Bacterial suspensions were serially diluted in T.E., and 5 μL of each stock were added to bead lysis-reactions containing 50 μL of lysis-reaction buffer. […]"}, "DNA polymerase I": {"target": "T1, DNA polymerase I (Escherichia coli, UniProt P00582)", "T1 construct": "purchased New England Biolabs M0209", "experiment": "DPE-PCR assay with purified DNA polymerase, ddCTP termination", "type": "biochemical", "details": "dNTP mix with 50 μM ddCTP instead of 50 μM dCTP; 2×10^−9 U DNA polymerase I; 37° C., 20 minutes", "experimental": "DNA Pol I (NEB cat #M0209L), Klenow (NEB cat #M0210S) and Klenow exo(−) (NEB cat #M0212S) were diluted to the indicated U/μL stock in Tris EDTA (T.E.) pH 8.0. To begin, 2 μL of DNA polymerase stock at each concentration were placed into a 50 μL polymerase assay mixture containing the following components: 50 μM dNTP, 20 mM Tris pH 8.0, 10 mM ammonium sulfate, 10 mM potassium chloride, 2 mM magnesium sulfate, 1% BSA, 0.1% Triton, 0.1% Tween, and 0.001 μM pre-annealed DNA substrate. Reactions were vortexed briefly and placed at 37° C. for 20 minutes. After 20 minutes, 3 μL of each reaction were immediately placed into a quantitative PCR (qPCR) reaction. Detection by qPCR\nThe qPCR reaction master mix was prepared using the following components: LightCycler 480 Master Mix (Roche cat #04707494001), 333 nM of each primer, 166 nM Target probe (FAM), 166 nM internal control probe (TxRed), and 1.2 U of UDG (Bioline cat #BIO-20744). As a tool to monitor PCR inhibition, each qPCR reaction also included 40 copies of competitive internal control DNA. […]"}}, "data": [{"smiles": "Nc1ccn([C@H]2CC[C@@H](COP(=O)(O)OP(=O)(O)OP(=O)(O)O)O2)c(=O)n1", "note": "[ddCTP, dideoxyCTP]", "values": [{"measurement": "DPE-PCR signal derived from E. coli cfu spikes", "setting": "[1]", "result": "blocked the generation of signal derived from E. coli cfu spikes"}, {"measurement": "DPE-PCR assay signal (DNA polymerase extension activity)", "setting": "DNA polymerase I", "result": "eliminates signal generated by DNA polymerase I"}]}]}
